Results on 14 compounds are retold here after patent publication US8809352B2, “Sulfonamides as inhibitors of Bcl-2 family proteins for the treatments of cancer” (Novartis AG, priority 2009, dated 2014).

One may read the IC50 as the point on the concentration scale where inhibition reaches its midpoint.

BCL2, sequence (P10415 whole entry): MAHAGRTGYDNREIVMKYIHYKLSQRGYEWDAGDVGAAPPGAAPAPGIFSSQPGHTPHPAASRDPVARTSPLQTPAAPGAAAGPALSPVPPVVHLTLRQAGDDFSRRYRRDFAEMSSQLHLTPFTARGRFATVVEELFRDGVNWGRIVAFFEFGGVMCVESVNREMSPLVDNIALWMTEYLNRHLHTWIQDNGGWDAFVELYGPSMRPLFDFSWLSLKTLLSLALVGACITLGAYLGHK

The test concerns the target BCL2 (Homo sapiens, UniProt P10415). The test is described as follows: Biacore SPR solution inhibition assay of BCL-2 binding to peptide derivatized sensor surfaces. Particulars: SPR competition; 56 nM BCL2 pre-equilibrated with compound one hour; biotinylated BAK, BAD and NOXA peptide surfaces; 25° C. The source says: The present method includes utility of a Surface plasmon resonance (SPR)-based biosensor (Biacore™ GE Healthcare, Uppsala, Sweden) to characterize BCL-2 inhibitors.
Biacore™ utilizes the phenomenon of surface plasmon resonance (SPR) to detect and measure binding interactions. In a typical Biacore experiment, one of the interacting molecules (ligand) is immobilized on a flexible dextran matrix while the interacting partner (analyte) is allowed to flow across that surface. A binding interaction results in an increase in mass on the sensor surface and a corresponding direct change in the refractive index of the medium in the vicinity of the sensor surface. Changes in refractive index or signal are recorded in resonance units (R.U.) Signal changes due to association and dissociation of complexes are monitored in a non-invasive manner, continuously and in real-time, the results of which are reported in the form of a sensorgram. The SPR assay is configured to examine solution inhibition of BCL-2 binding to peptide derivatized sensor surfaces to generate […] values as a measure of inhibitor potency.
Biacore™ A100 (GE Healthcare, Uppsala, Sweden) was used to conduct all experiments reported herein. Sensor surface preparation and all interaction analyses experiments were performed at 25° C. Reagents were purchased from GE Healthcare. Running buffer containing 10 mM Hepes, pH7.4, 150 mM sodium chloride, 1.25 mM Dithiothreitol, 3% Dimethyl sulfoxide and 0.05% polysorbate 20 were utilized throughout all analyses.
Biotinylated BAK, BAD and NOXA peptides were diluted to 10 nM in running buffer and captured onto a sensor surface pre-derivatized with streptavidin (sensor chip SA) to peptide surface densities in the range 50-100 R.U. Peptide captured surfaces were blocked with 500 μM PEO2-Biotin.
Interaction analyses were performed by first equilibrating each sample within a 6 point three fold compound dilution series in the range 16 μM to 0.004 nM with 56 nM BCL2 for one hour during instrument start-up procedures. Protein compound mixtures were then injected over each peptide surface in parallel for 60 seconds at a flow-rate of 30 μL/min. 56 nM BCL2 control samples were also prepared and run at regular intervals during the assay. Surface regeneration was performed at the end of each analysis cycle by two 30 second injections of 10 mM Glycine, pH 2.5, 1M Sodium Chloride, 0.05% polysorbate 20. Samples and control compound samples were run in duplicate and controls are also run at regular intervals during the assay to monitor surface and assay performance.
Data analyses are carried out using Biacore™ A100 evaluation software v1.1 to validate assay quality. Binding level report points were used relative to BCL2 control samples to calculate % inhibition values for each compound protein mixture.
A general note: SPR reads the build-up and loss of mass on a sensor chip optically.
With `CC1(C)CCC(CN2CCC(N3CCc4c(ncnc4NS(=O)(=O)c4ccc(N[C@H](CCN5CCOCC5)CSc5ccccc5)c(S(=O)(=O)C(F)(F)F)c4)C3)CC2)=C(c2ccc(Cl)cc2)C1` [Example 16, (R)-N-(7-(1-((2-(4-chlorophenol)-4,4-dimethylcyclohex-1-enyl)methyl)piperidin-4-yl)-5,6,7,8-tetrahydropyrido[3,4-d]pyrimidin-4-yl)-4-(4-morpholino-1-(phenylthio)butan-2-ylamino)-3-(trifluoromethylsulfonyl)benzenesulfonamide], the IC50 was found to be 41 nM.
The value for `CN(C)CC[C@H](CSc1ccccc1)Nc1ccc(S(=O)(=O)Nc2ncnc3c2CCN(C2CCN(CC4=C(c5ccc(Cl)cc5)CC(C)(C)CC4)CC2)C3)cc1S(=O)(=O)C(F)(F)F` [Example 17, (R)-N-(7-(1-((2-(4-chlorophenyl)-4,4-dimethylcyclohex-1-enyl)methyl)piperidin-4-yl)-5,6,7,8-tetrahydropyrido[3,4-d]pyrimidin-4-yl)-4-(4-(dimethylamino)-1-(phenylthio)butan-2-ylamino)-3-(trifluoromethylsulfonyl)benzenesulfonamide] was 22 nM.
For `CN(C)CC[C@H](CSc1ccccc1)Nc1ccc(S(=O)(=O)Nc2ncnc3c2CCN(C2CCN(Cc4ccc(F)cc4-c4ccc(Cl)cc4)CC2)C3)cc1S(=O)(=O)C(F)(F)F` [Example 19, (R)-N-(7-(1-((4′-chloro-5-fluorobiphenyl-2-yl)methyl)piperidin-4-yl)-5,6,7,8-tetrahydropyrido[3,4-d]pyrimidin-4-yl)-4-(4-(dimethylamino)-1-(phenylthio)butan-2-ylamino)-3-(trifluoromethylsulfonyl)benzenesulfonamide], the IC50 was determined as 35 nM.
Turning to `CN(C)CC[C@H](CSc1ccccc1)Nc1ccc(S(=O)(=O)Nc2ncnc3c2CCN(C2CCN(Cc4cc(F)ccc4-c4ccc(Cl)cc4)CC2)C3)cc1S(=O)(=O)C(F)(F)F` [Example 20], the IC50 worked out at 22 nM.
The value for `CN(C)CC[C@H](CSc1ccccc1)Nc1ccc(S(=O)(=O)Nc2ncnc3c2CCN(C2CCN(Cc4c(F)cccc4-c4ccc(Cl)cc4)CC2)C3)cc1S(=O)(=O)C(F)(F)F` [Example 21, (R)-N—-(7-(1-((4′-chloro-3-fluorobiphenyl-2-yl)methyl)piperidin-4-yl)-5,6,7,8-tetrahydropyrido[3,4-d]pyrimidin-4-yl)-4-(4-(dimethylamino)-1-(phenylthio)butan-2-ylamino)-3-(trifluoromethylsulfonyl)benzenesulfonamide] was 30 nM.
On to `CN(C)C(=O)C[C@H](CSc1ccccc1)Nc1ccc(S(=O)(=O)Nc2ncnc3c2CCN(C2CCN(Cc4ccccc4-c4ccc(Cl)cc4)CC2)C3)cc1[N+](=O)[O-]` [Example 22, (R)-3-(4-(N-(7-(1-((4′-chlorobiphenyl-2-yl)methyl)piperidin-4-yl)-5,6,7,8-tetrahydropyrido[3,4-d]pyrimidin-4-yl)sulfamoyl)-2-nitrophenylamino)-N,N-dimethyl-4-(phenylthio)butanamide], for which the IC50 worked out at 75 nM.
The value for `CCN1CCN(CC[C@H](CSc2ccccc2)Nc2ccc(S(=O)(=O)Nc3ncnc4c3CCN(C3CCN(Cc5ccccc5-c5ccc(Cl)cc5)CC3)C4)cc2S(=O)(=O)C(F)(F)F)CC1` [Example 23, N-{7-[1-(4′-Chloro-biphenyl-2-ylmethyl)-piperidin-4-yl]-5,6,7,8-tetrahydro-pyrido[3,4-d]pyrimidin-4-yl}-4[(R)-3-(4-ethyl-piperazin-1-yl)-1-phenylsulfanylmethyl-propylamino]-3-trifluoromethanesulfonyl-benzenesulfonamide] was 51 nM; that for `CC(C1=C(c2ccc(Cl)cc2)CC(C)(C)CC1)N1CCC(N2CCc3c(ncnc3NS(=O)(=O)c3ccc(N[C@H](CCN4CCOCC4)CSc4ccccc4)c(S(=O)(=O)C(F)(F)F)c3)C2)CC1` (some centres unmarked) [Example 24] was 89 nM; that for `CN(C)CC[C@H](COCc1ccccc1)Nc1ccc(S(=O)(=O)Nc2ncnc3c2CCN(C2CCN(Cc4ccccc4-c4ccc(Cl)cc4)CC2)C3)cc1S(=O)(=O)C(F)(F)F` [Example 25, 4-((R)-1-Benzyloxymethyl-3-dimethylamino-propylamino)-N-{7-[1-(4′-chloro-biphenyl-2-ylmethyl)-piperidin-4-yl]-5,6,7,8-tetrahydro-pyrido[3,4-d]pyrimidin-4-yl}-3-trifluoromethanesulfonyl-benzenesulfonamide] was 142 nM.
As to `CN(C)CC[C@H](CSc1cccc(Cl)c1)Nc1ccc(S(=O)(=O)Nc2ncnc3c2CCN(C2CCN(Cc4ccccc4-c4ccc(Cl)cc4)CC2)C3)cc1S(=O)(=O)C(F)(F)F` [Example 26, N-{7-[1-(4′-Chloro-biphenyl-2-ylmethyl)-piperidin-4-yl]-5,6,7,8-tetrahydro-pyrido[3,4-c]pyrimidin-4-yl}-4-[(R)-1-(3-chloro-phenylsulfanylmethyl)-3-dimethylamino-propylamino]-3-trifluoromethanesulfonyl-benzenesulfonamide], the IC50 was 48 nM.
With `CC1CC(N2CCc3c(ncnc3NS(=O)(=O)c3ccc(N[C@H](CCN4CCOCC4)CSc4ccccc4)c(S(=O)(=O)C(F)(F)F)c3)C2)CCN1CC1=C(c2ccc(Cl)cc2)CC(C)(C)CC1` (stereo partly drawn) [Example 27, N-(7-(1-((2-(4-chlorophenyl)-4,4-dimethylcyclohex-1-enyl)methyl)-2-methylpiperidin-4-yl)-5,6,7,8-tetrahydropyrido[3,4-d]pyrimidin-4-yl)-4-((R)-4-morpholino-1-(phenylthio)butan-2-ylamino)-3-(trifluoromethylsulfonyl)benzenesulfonamide], the IC50 came to 206 nM.
Regarding `CN(C)CC[C@H](CSc1ccccc1Cl)Nc1ccc(S(=O)(=O)Nc2ncnc3c2CCN(C2CCN(CC4=C(c5ccc(Cl)cc5)CC(C)(C)CC4)CC2)C3)cc1S(=O)(=O)C(F)(F)F` [Example 28, (R)-N-(7-(1((2-(4-chlorophenyl)-4,4-dimethylcyclohex-1-enyl)methyl)piperidin-4-yl)-5,6,7,8-tetrahydropyrido[3,4-d]pyrimidin-4-yl)-4-(1-(2-chlorophenylthio)-4-(dimethylamino)butan-2-ylamino)-3-(trifluoromethylsulfonyl)benzenesulfonamide], the IC50 was found to be 44 nM.
In the case of `CC(c1ccccc1-c1ccc(Cl)cc1)N1CCC(N2CCc3c(ncnc3NS(=O)(=O)c3ccc(N[C@H](CCN(C)C)CSc4ccccc4Cl)c(S(=O)(=O)C(F)(F)F)c3)C2)CC1` (stereo partly drawn) [Example 29, N-(7-(1-(1-(4′-chlorobiphenyl-2-yl)ethyl)piperidin-4-yl)-5,6,7,8-tetrahydropyrido[3,4-d]pyrimidin-4-yl)-4-((R)-1-(2-chlorophenylthio)-4-(dimethylamino)butan-2-ylamino)-3-(trifluoromethylsulfonyl)benzenesulfonamide], the 50% inhibitory concentration (IC50) stood at 73 nM.
As for `O=S(=O)(Nc1ncnc2c1CCN(C1CCN(Cc3ccccc3-c3ccc(Cl)cc3)CC1)C2)c1ccc(N[C@H](CCN2CCCCC2)CSc2ccccc2)c(S(=O)(=O)C(F)(F)F)c1` [Example 30, (R)-N-(7(1-((4′-chlorobiphenyl-2-yl)methyl)piperidin-4-yl)-5,6,7,8-tetrahydropyrido[3,4-d]pyrimidin-4-yl)-4-(l-(phenylthio)-4-(piperidin-1-yl)butan-2-ylamino)-3-(trifluoromethylsulfonyl)benzenesulfonamide], the IC50 was found to be 128 nM.
